The values that follow are results of earlier work, collected in patent US20080095838A1, “Solid pharmaceutical composition containing a lipophilic active principle and preparation method thereof” (CLL Pharma, priority 2002, published 2008).

SMILES strings stand for the structures. Structures can show the parent of a compound that is named as a salt.

The conditions of data set [1]: in vivo.
For data set [2] the following is noted: in water.

Regarding `CC(C)OC(=O)C(C)(C)Oc1ccc(C(=O)c2ccc(Cl)cc2)cc1` [fenofibrate, 2-(4-(4-chlorobenzoyl)phenoxy)-2-methylpropanoic acid 1-methylethyl ester], the elimination half-life result in data set [1] was “approximately 20 hours”.
As a reminder, the solubility is the concentration that dissolves in the medium under given conditions. Turning to `CC(C)(C)NC(=O)[C@@H]1C[C@@H]2CCCC[C@@H]2CN1C[C@@H](O)[C@H](Cc1ccccc1)NC(=O)[C@H](CC(N)=O)NC(=O)c1ccc2ccccc2n1` [saquinavir mesylate], the solubility in data set [2] is 2220 µg/mL.
